These results are taken from patent US8313771B2, “Phosphazene hydrogels with chemical corss-link, preparation method thereof and use thereof” (Korea Institute of Science and Technology, priority 2007, dated 2012).

The conditions of this data set: pH 7.4.

Experimental: The solutions were put into a chamber of a Brookfield DV-III+ Rheometer equipped with a thermostatic bath (TC-501). The sol-gel phase transition was observed while raising the temperature at the rate of 0.04° C./min and a shear rate of 0.1 to 1.7 per second.
(maximum) gelling temp. (temperature)” means the temperature where the viscosity of the polymer solution reaches the maximum point, and the term “Max. gel solidity” means the maximum viscosity of the polymer solution.

“poly[(isoleucine ethyl ester)(aminomethoxypolyethylene glycol 550)(cysteine ethyl ester)phosphazene] [Example 10]” returned a Max. gelling temp. of 32 °C.

In turn, “poly[(isoleucine ethyl ester)(aminomethoxypolyethylene glycol 550)(tyramine)phosphazene] [Example 18]” had a Max. gelling temp. of 34 °C.

Take “poly[(isoleucine ethyl ester)(aminomethoxypolyethylene glycol 550)(aminoethylmethacrylate)phosphazene] [Example 4]”: the Max. gelling temp. was 39 °C.

Take “[(isoleucine ethyl ester)(aminomethoxypolyethylene glycol 550)(aminoethylmethacrylate)phosphazene] [Example 2]”: the Max. gelling temp. stood at 28 °C.
